From patent US20130123255A1, “COMBINATION OF A PI3K INHIBITOR AND A MEK INHIBITOR” (CHUGAI SEIYAKU KABUSHIKI KAISHA, priority 2011, published 2013)

What was measured:
[1] = system: ERK phosphorylation in HCT116 cells; assay: Western blot of MAPK pathway, ERK phosphorylation; type: cell-based
Description: (§1) To investigate the combination effect on PI3K and MAPK pathway, compound of formula (I) and compound of formula (II) were tested on HCT116 cells.
(§2) 5×10^5 of cells were treated with compound of formula (I) alone, compound of formula (II) alone or the combination thereof at 1 μM for 24 hours in 6-well plate. After that, HCT116 cells were lysed with Cell Lysis Buffer (Cell Signaling Technology) containing protease and phosphatase inhibitors. The lysates were denatured and then subjected to SDS-PAGE. After electroblotting, the polyvinylidene fluoride membranes were blocked with Blocking One (Nacalai Tesque) for 1 h. Membranes were then incubated with primary antibodies purchased from Cell Signaling Technology Inc., and anti-actin antibody purchased from Santa Cruz Biotechnology over night at 4° C., followed by washing three times with 0.1% Tween 20 (Nacalai Tesque) in TBS buffer (TBS-T buffer; TaKaRa Bio). This was followed by 0.5 to 1 h incubation at room temperature with secondary antibodies (Cell Signaling Technology). Then, membranes were washed four times with TBS-T buffer, followed by incubation with ECL or ECL-plus solutions (GE Healthcare). Signals were detected using LAS-4000 (Fujifilm) according to the manufacturer's instructions.

[2] = system: Akt phosphorylation in HCT116 cells; assay: Western blot of PI3K pathway, Akt phosphorylation; type: cell-based; conditions: 1 μM, 24 hours, FIG. 3
Description: as §1, §2

Structure (SMILES): O=C(NOCCO)c1cc(CN2OCCCC2=O)c(F)c(F)c1Nc1ccc(I)cc1F [compound of formula (I), 3,4-difluoro-2-(2-fluoro-4-iodo-phenylamino)-N-(2-hydroxy-ethoxy)-5-(3-oxo-[1,2]oxazinan-2-ylmethyl)-benzamide]
- phosphorylation of ERK [1]: suppressed

Structure (SMILES): CS(=O)(=O)N1CCc2c(-c3cnc(N)nc3)nc(N3CCOCC3)nc21 [compound of formula (II), 5-(7-methanesulfonyl-2-morpholin-4-yl-6,7-dihydro-5H-pyrrolo[2,3-d]pyrimidin-4-yl)-pyrimidin-2-ylamine]
- phosphorylation of Akt [2]: suppressed
